Measured values published in US11339130B1 (Blade Therapeutics, Inc., priority 2016, dated 2022).

How the values were obtained:
Type in all cases: biochemical
Human Calpain 9/NS1 = molecular target: T1, Human Calpain 9/NS1 (Homo sapiens, UniProt O14815); test: Calpain inhibition continuous fluorescence (FRET) assay, Human Calpain 9/NS1; conditions: Column C; read-out: Human Calpain 9/NS1 IC50
T1 sequence (O14815 1-690): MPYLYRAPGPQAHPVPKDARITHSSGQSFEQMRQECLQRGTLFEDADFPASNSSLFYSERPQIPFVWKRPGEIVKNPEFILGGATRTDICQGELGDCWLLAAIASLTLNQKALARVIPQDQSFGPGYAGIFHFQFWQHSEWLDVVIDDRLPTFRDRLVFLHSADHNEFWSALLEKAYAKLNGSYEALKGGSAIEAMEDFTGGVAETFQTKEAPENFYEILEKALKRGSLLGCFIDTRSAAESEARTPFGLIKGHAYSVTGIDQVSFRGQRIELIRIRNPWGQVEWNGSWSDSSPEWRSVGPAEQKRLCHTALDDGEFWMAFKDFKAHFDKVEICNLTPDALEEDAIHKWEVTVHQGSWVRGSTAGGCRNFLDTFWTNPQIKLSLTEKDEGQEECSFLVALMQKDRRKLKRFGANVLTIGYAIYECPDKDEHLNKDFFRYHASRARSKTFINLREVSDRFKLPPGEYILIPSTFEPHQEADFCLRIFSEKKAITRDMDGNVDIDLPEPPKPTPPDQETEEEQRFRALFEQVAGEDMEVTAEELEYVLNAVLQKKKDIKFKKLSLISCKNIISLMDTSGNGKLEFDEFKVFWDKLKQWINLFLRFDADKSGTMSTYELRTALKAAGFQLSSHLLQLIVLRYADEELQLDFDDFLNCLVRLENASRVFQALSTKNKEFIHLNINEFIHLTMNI
T1 sequence (P04632 1-268 partner): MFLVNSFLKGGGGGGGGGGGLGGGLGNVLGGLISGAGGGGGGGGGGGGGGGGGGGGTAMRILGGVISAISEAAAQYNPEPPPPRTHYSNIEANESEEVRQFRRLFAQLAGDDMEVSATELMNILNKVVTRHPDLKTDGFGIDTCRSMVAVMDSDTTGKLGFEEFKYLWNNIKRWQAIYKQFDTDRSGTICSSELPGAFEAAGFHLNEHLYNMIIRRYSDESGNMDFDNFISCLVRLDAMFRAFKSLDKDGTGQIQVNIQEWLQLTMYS
Method in brief: (§1)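 Buffer 50 mM Tris pH 7.5/100 mM NaCl/1 mM DTT; enzyme + cpd preinc 25C; start w/ FRET substrate + CaCl2; kinetic 490/520 nm, 10 min; slopes 1-5 min; 4-PL IC50.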

Human Calpain 2/NS1 = molecular target: T2, Human Calpain 2/NS1 (Homo sapiens, UniProt P17655); test: Calpain inhibition continuous fluorescence (FRET) assay, Human Calpain 2/NS1; conditions: Column B; read-out: Human Calpain 2/NS1 IC50
T2 sequence (P17655 1-700): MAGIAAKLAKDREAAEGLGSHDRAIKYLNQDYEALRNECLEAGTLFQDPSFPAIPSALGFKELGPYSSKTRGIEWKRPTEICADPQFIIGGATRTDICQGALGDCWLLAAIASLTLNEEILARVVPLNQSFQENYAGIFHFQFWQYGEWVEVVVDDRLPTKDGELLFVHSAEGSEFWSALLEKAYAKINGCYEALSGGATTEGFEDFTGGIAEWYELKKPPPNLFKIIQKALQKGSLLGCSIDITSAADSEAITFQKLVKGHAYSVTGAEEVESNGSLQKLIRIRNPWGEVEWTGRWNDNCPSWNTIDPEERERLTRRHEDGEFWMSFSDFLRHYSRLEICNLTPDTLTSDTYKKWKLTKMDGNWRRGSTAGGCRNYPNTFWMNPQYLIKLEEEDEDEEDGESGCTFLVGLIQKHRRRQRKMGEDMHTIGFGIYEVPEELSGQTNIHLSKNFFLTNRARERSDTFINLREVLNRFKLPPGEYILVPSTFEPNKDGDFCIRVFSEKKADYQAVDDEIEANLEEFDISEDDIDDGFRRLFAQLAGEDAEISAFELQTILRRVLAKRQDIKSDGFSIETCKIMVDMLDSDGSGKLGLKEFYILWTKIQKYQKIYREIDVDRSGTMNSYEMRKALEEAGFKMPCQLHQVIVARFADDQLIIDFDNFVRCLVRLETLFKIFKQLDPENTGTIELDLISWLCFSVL
T2 sequence (P04632 1-268 partner): T1 sequence (P04632 1-268 partner)
Method in brief: as §1

Human Calpain 1/NS1 = molecular target: T3, Human Calpain 1/NS1 (Homo sapiens, UniProt P07384); test: Calpain inhibition continuous fluorescence (FRET) assay, Human Calpain 1/NS1; conditions: Column A; read-out: Human Calpain 1/NS1 IC50
T3 sequence (P07384 1-714): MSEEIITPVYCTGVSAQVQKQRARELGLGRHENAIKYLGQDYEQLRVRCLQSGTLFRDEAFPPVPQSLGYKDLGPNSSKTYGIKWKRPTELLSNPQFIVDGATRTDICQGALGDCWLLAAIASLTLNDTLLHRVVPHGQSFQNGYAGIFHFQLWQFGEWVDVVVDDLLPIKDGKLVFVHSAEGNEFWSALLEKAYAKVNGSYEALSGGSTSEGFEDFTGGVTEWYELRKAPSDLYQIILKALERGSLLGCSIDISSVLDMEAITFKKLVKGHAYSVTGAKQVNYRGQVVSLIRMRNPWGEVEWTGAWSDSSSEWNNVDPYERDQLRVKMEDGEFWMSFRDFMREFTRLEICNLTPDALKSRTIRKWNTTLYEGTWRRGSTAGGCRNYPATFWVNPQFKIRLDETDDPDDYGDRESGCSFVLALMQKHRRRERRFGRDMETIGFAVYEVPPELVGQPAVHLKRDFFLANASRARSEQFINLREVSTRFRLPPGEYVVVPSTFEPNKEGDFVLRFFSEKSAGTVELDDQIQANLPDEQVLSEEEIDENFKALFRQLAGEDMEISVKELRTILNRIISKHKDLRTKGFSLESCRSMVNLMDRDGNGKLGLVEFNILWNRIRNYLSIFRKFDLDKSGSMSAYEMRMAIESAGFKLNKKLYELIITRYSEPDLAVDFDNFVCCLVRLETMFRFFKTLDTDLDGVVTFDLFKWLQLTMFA
T3 sequence (P04632 1-268 partner): T1 sequence (P04632 1-268 partner)
Method in brief: as §1

| IC50 (Human Calpain 9/NS1) [µM] | IC50 (Human Calpain 2/NS1) [µM] | IC50 (Human Calpain 1/NS1) [µM] | Structure (SMILES) |
| --- | --- | --- | --- |
| > 10 | > 10 | > 10 | Cc1cc(C(=O)N[C@@H](Cc2ccccc2)C(=O)C(=O)NC2CC2)nn1-c1nc(-c2ccccc2)cs1 [Compound 125, (S)—N-(4-(cyclopropylamino)-3,4-dioxo-1-phenylbutan-2-yl)-5-methyl-1-(4-phenylthiazol-2-yl)-1H-pyrazole-3-carboxamide] |
| < 3 | < 3 | < 3 | Cc1cc(C(=O)N[C@@H](Cc2ccccc2)C(=O)C(=O)NC2CC2)n(-c2cncnc2)n1 [Compound 127] |
| 3 to 10 | > 10 | 3 to 10 | CC(C)(C)c1cc(C(=O)N[C@@H](Cc2ccccc2)C(=O)C(N)=O)n(-c2ccccc2)n1 [Compound 128, (S)—N-(4-amino-3,4-dioxo-1-phenylbutan-2-yl)-3-(tert-butyl)-1-phenyl-1H-pyrazole-5-carboxamide] |
| 3 to 10 | > 10 | 3 to 10 | NC(=O)C(=O)[C@H](Cc1ccccc1)NC(=O)c1[nH]ncc1-c1ccccc1 [Compound 129, (S)—N-(4-amino-3,4-dioxo-1-phenylbutan-2-yl)-4-phenyl-1H-pyrazole-5-carboxamide] |
| < 3 | < 3 | < 3 | Cc1cc(C(=O)N[C@@H](Cc2ccccc2)C(=O)C(=O)NC2CC2)n(-c2cccnc2)n1 [Compound 132, (S)—N-(4-(cyclopropylamino)-3,4-dioxo-1-phenylbutan-2-yl)-3-methyl-1-(pyridin-3-yl)-1H-pyrazole-5-carboxamide] |
| < 3 | < 3 | < 3 | Cc1cc(C(=O)N[C@@H](Cc2ccccc2)C(=O)C(N)=O)n(-c2cncc3ccccc23)n1 [Compound 133, (S)—N-(4-amino-3,4-dioxo-1-phenylbutan-2-yl)-1-(isoquinolin-4-yl)-3-methyl-1H-pyrazole-5-carboxamide] |
| 3 to 10 | 3 to 10 | 3 to 10 | Cc1cc(C(=O)N[C@@H](Cc2ccccc2)C(=O)C(=O)NC2CC2)n(-c2cncc3ccccc23)n1 [Compound 134, (S)—N-(4-(cyclopropylamino)-3,4-dioxo-1-phenylbutan-2-yl)-1-(isoquinolin-4-yl)-3-methyl-1H-pyrazole-5-carboxamide] |
| > 10 | < 3 | < 3 | O=C(NC1CC1)C(=O)[C@H](Cc1ccccc1)NC(=O)c1sc(C2CC2)nc1-c1ccccc1 [Compound 135, (S)-2-cyclopropyl-N-(4-(cyclopropylamino)-3,4-dioxo-1-phenylbutan-2-yl)-4-phenylthiazole-5-carboxamide] |

The next lines start with the molecule.

| Structure (SMILES) | IC50 (Human Calpain 9/NS1) [µM] | IC50 (Human Calpain 2/NS1) [µM] | IC50 (Human Calpain 1/NS1) [µM] |
| --- | --- | --- | --- |
| O=C[C@H](Cc1ccccc1)NC(=O)c1cncn1-c1cc(-c2ncco2)ccn1 [Compound 110, (S)-1-(4-(oxazol-2-yl)pyridin-2-yl)-N-(1-oxo-3-phenylpropan-2-yl)-1H-imidazole-5-carboxamide] | 3 to 10 | < 3 | < 3 |
| O=C[C@H](Cc1ccccc1)NC(=O)c1cncn1-c1ccc(-c2ncco2)cn1 [Compound 111, (S)-1-(5-(oxazol-2-yl)pyridin-2-yl)-N-(1-oxo-3-phenylpropan-2-yl)-1H-imidazole-5-carboxamide] | < 3 | < 3 | < 3 |
| Cc1cc(C(=O)N[C@@H](Cc2ccccc2)C(=O)C(N)=O)nn1-c1ncc(-c2ccccc2)o1 [Compound 114, (S)—N-(4-amino-3,4-dioxo-1-phenylbutan-2-yl)-5-methyl-1-(5-phenyloxazol-2-yl)-1H-pyrazole-3-carboxamide] | 3 to 10 | < 3 | 3 to 10 |
| Cc1cc(C(=O)N[C@@H](Cc2ccccc2)C(=O)C(N)=O)nn1-c1ncc(-c2ccccc2)s1 [Compound 115, (S)—N-(4-amino-3,4-dioxo-1-phenylbutan-2-yl)-5-methyl-1-(5-phenylthiazol-2-yl)-1H-pyrazole-3-carboxamide] | > 10 | < 3 | > 10 |
| Cc1nsc(-c2ccccc2)c1C(=O)N[C@@H](Cc1ccccc1)C(=O)C(=O)NC1CC1 [Compound 116, (S)—N-(4-(cyclopropylamino)-3,4-dioxo-1-phenylbutan-2-yl)-3-methyl-5-phenylisothiazole-4-carboxamide] | > 10 | 3 to 10 | < 3 |
| CC(C)c1cc(C(=O)N[C@@H](Cc2ccccc2)C(=O)C(N)=O)n(-c2ccccc2)n1 [Compound 117, (S)—N-(4-amino-3,4-dioxo-1-phenylbutan-2-yl)-3-isopropyl-1-phenyl-1H-pyrazole-5-carboxamide] | 3 to 10 | 3 to 10 | 3 to 10 |
| Cc1cc(C(=O)N[C@@H](Cc2ccccc2)C(=O)C(N)=O)n(-c2nccc3ccccc23)n1 [Compound 119, (S)—N-(4-amino-3,4-dioxo-1-phenylbutan-2-yl)-1-(isoquinolin-1-yl)-3-methyl-1H-pyrazole-5-carboxamide] | < 3 | < 3 | < 3 |
| Cc1cc(C(=O)N[C@@H](Cc2ccccc2)C(=O)C(=O)NC2CC2)n(-c2ccc(C(F)(F)F)cn2)n1 [Compound 122, (S)—N-(4-(cyclopropylamino)-3,4-dioxo-1-phenylbutan-2-yl)-3-methyl-1-(5-(trifluoromethyl)pyridin-2-yl)-1H-pyrazole-5-carboxamide] | < 3 | < 3 | < 3 |
| Cc1cc(C)nc(-n2nc(C)cc2C(=O)N[C@@H](Cc2ccccc2)C(=O)C(N)=O)c1 [Compound 123, (S)—N-(4-amino-3,4-dioxo-1-phenylbutan-2-yl)-1-(4,6-dimethylpyridin-2-yl)-3-methyl-1H-pyrazole-5-carboxamide] | < 3 | < 3 | < 3 |
| Cc1nc(-c2ccccc2)c(C(=O)N[C@@H](Cc2ccccc2)C(=O)C(=O)NC2CC2)s1 [Compound 124, (S)—N-(4-(cyclopropylamino)-3,4-dioxo-1-phenylbutan-2-yl)-2-methyl-4-phenylthiazole-5-carboxamide] | < 3 | < 3 | < 3 |
